Results published in paper PMC11289455 (Scientific Reports, 2024).
Where “and” joins values, the source holds several entries; their conditions need not be identical. Equal values may be shown once. Positions of bridges follow the written chain, without caps; N, C: chain ends. Non-standard residues stand in square brackets, D forms with d. Trp(7-Me) = Cc1cccc2c(C[C@H](N)C(=O)O)c[nH]c12; 2Nal = N[C@@H](Cc1ccc2ccccc2c1)C(=O)O; AEF = NCCOc1ccc(C[C@H](N)C(=O)O)cc1; 3Pal = N[C@@H](Cc1cccnc1)C(=O)O; Pen = CC(C)(S)[C@H](N)C(=O)O; Thp = NC1(C(=O)O)CCOCC1; Sar = CNCC(=O)O

T1: Biotinylated recombinant rat IL23R (rIL23R^biot, hGH.ratIL23R.24-317.GS.Avi.TEV.8His) (rat, UniProt F1LX96 24-317, biotinylated (TurboBiotinylase))
T1 construct: rat IL-23 receptor subunit IL-23R, extracellular domain, residues 24-317, from the construct name hGH.ratIL23R.24-317.GS.Avi.TEV.8His; A GS linker stands between the receptor and the Avi tag; The 8His tag follows a TEV site; also called rat IL-23R ECD; not shown: Avi, C-terminal, kept; His8, C-terminal, cleaved
T1 sequence (looked up): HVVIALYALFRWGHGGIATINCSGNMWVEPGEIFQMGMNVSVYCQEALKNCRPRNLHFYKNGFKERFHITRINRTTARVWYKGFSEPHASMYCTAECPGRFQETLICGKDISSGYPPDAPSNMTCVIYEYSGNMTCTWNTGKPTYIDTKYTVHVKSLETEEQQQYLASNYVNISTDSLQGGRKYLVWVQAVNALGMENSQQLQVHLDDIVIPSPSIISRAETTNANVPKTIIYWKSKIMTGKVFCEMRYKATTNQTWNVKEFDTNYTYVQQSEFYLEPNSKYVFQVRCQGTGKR


Key:
[1] = test system: IL-12– and IL-23–dependent phosphorylation of STAT4 and STAT3; parameters: method as in PMID 31341059; conditions: cited from earlier work
[2] = molecular target: T1, Biotinylated recombinant rat IL23R …; test: SPR; ~2500 RU biotinylated rat IL-23R captured on a streptavidin chip; JNJ-77242113 injected at multiple concentrations; PBS, 0.05% P20, 5% DMSO; 37 °C; association 150 s, dissociation 2000 s; Biacore 8K+, parallel kinetics, 1:1 binding model; conditions: both partners purified

Row | Molecule | Effect on IL-12– and IL-23–dependent phosphorylation of STAT4 and STAT3 [1] | Kd [2]
1 | deucravacitinib | inhibits both | 
2 | Ac-[Pen]NT[Trp(7-Me)]K(Ac)[Pen][AEF][2Nal][Thp]EN[3Pal][Sar]-NH2 (disulfide 1-6) [JNJ-77242113] |  | 17.5 pM and 12 to 23 pM
